This note sets out measurements from patent US12018021B2 (UCB Biopharma SRL, priority 2018, dated 2024).

The structures appear in SMILES notation.

IgE-Tb / FcεRIα-Y131A-AF488, sequence (P01854 1-427 limits assumed, stated change not applied): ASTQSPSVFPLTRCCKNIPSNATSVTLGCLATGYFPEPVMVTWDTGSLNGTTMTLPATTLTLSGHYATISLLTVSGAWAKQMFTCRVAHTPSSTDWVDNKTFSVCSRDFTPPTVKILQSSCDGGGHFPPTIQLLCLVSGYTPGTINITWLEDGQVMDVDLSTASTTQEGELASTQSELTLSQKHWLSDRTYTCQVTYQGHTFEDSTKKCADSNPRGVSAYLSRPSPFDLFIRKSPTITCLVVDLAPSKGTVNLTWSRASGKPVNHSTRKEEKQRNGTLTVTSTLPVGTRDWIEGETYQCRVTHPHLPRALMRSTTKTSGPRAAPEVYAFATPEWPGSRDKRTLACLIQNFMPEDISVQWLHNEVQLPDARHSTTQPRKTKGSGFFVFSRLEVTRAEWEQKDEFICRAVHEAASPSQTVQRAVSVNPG

This experiment concerns the target IgE-Tb / FcεRIα-Y131A-AF488 (Homo sapiens, UniProt P01854). Briefly: IgE-Tb / FcεRIα-Y131A-AF488 FRET assay (protocol for examples 1 to 233). The format is binding. The following applies: examples 1 to 233: 5 nM IgE-Tb, 25 nM FcεRIα-Y131A-AF488, incubated 2 hours at room temperature; read-out: Y131A FRET IC50 range. The procedure: For examples 1 to 233, the assay was conducted according to the following: Each assay reaction was conducted in a volume of 25 μl in a 384-well half-volume plate. 10 point compound serial dilutions (3-fold) were generated in DMSO at a concentration of ×50 that of the final assay concentration (FAC). Compound solutions were then prepared by IgE-Tb diluting 10-fold in assay buffer. For the assay, 5 μl of diluted compound was added to 10 μl of, followed by addition of 10 μl FcεRIα-Y131A-AF488. FRET reagents FACs were 5 nM IgE-Tb, 25 nM FcεRIα-Y131A-AF488. Usually the top FAC of compound in the assay was 10 μM. The final DMSO concentration was 2%. The minimum signal (MIN) was measured by adding 5l unlabelled FcεRIα at 1 μM (FAC=200 nM) to the FRET reagents. The maximum FRET signal (MAX) was measured in wells containing FRET reagents but no compound. The assay was incubated for 2 hours at room temperature, protected from light and evaporation, and with gentle agitation.
Measurement of FRET for each well was carried out by exciting at 330 nm and measuring emission at 495/520 nm using an Envision plate reader (Perkin Elmer). FRET ratio was calculated as follows: Emission at 520/Emission at 495×1000.
The FRET ratio was used for the data analysis.
Z′ was calculated as follows (σ=standard deviation and μ=mean): 1−((3×σMAX)+(3×σMIN))/(μMAX−μMIN)
Z′ above 0.5 was considered a good assay.
Background signal (MIN) was subtracted from all wells. Using the background subtracted values, the percent inhibition by compound in each test-well was calculated as follows: 100−Test-well FRET ratio/MAX FRET ratio×100.
Percent inhibition was plotted against compound concentration. IC50 values for each compound were determined using four parameter logistic fit model using the XLFIT5 software package.
For orientation: IC50 means the concentration that gives 50% inhibition. For `Cc1ccc(NC(=NC#N)NC2CCc3sc(NC(=O)C4CC4)c(S(=O)(=O)NCC4CC4)c3C2)cc1` (stereo not shown) [Example 30, N-[5-[[N′-Cyano-N-(p-tolyl)carbamimidoyl]amino]-3-(cyclopropylmethylsulfamoyl)-4,5,6,7-tetrahydrobenzothiophen-2-yl]cyclopropanecarboxamide], the IC50 was less than 1000 nM.

In the case of `CCNC(=NC#N)NC1CCc2sc(NC(=O)C3CC3)c(S(=O)(=O)NCC3CC3)c2C1` (stereo not shown) [Example 31, N-[5-[[N′-Cyano-N-ethyl-carbamimidoyl]amino]-3-(cyclopropylmethylsulfamoyl)-4,5,6,7-tetrahydrobenzothiophen-2-yl]cyclopropanecarboxamide], the IC50 was less than 1000 nM.

Consider `O=C1NCc2cc(NC(=O)C3CCc4sc(NC(=O)C5CC5)c(S(=O)(=O)NCC5CC5)c4C3)ccc21` (stereo not shown) [Example 32, 2-(Cyclopropanecarbonylamino)-3-(cyclopropylmethylsulfamoyl)-N-(1-oxoisoindolin-5-yl)-4,5,6,7-tetrahydrobenzothiophene-5-carboxamide], for which the IC50 was less than 1000 nM.

In the case of `NS(=O)(=O)c1cccc(NC(=O)C2CCc3sc(NC(=O)C4CC4)c(S(=O)(=O)NCC4CC4)c3C2)c1` (stereo not shown) [Example 33, 2-(Cyclopropanecarbonylamino)-3-(cyclopropylmethylsulfamoyl)-N-(3-sulfamoylphenyl)-4,5,6,7-tetrahydrobenzothiophene-5-carboxamide], the half-maximal inhibitory concentration (IC50) was less than 1000 nM.

For `CS(=O)(=O)c1cccc(NC(=O)C2CCc3sc(NC(=O)C4CC4)c(S(=O)(=O)NCC4CC4)c3C2)c1` (stereo not shown) [Example 34, 2-(Cyclopropanecarbonylamino)-3-(cyclopropylmethylsulfamoyl)-N-(3-methylsulfonylphenyl)-4,5,6,7-tetrahydrobenzothiophene-5-carboxamide], the IC50 is less than 1000 nM.

`O=C(Nc1cccc(-c2ccno2)c1)C1CCc2sc(NC(=O)C3CC3)c(S(=O)(=O)NCC3CC3)c2C1` (stereo not shown) [Example 35, 2-(Cyclopropanecarbonylamino)-3-(cyclopropylmethylsulfamoyl)-N-(3-isoxazol-5-ylphenyl)-4,5,6,7-tetrahydrobenzothiophene-5-carboxamide]: the IC50 was less than 1000 nM.

Consider `CCOc1c(NC2CCc3sc(NC(=O)C4CC4)c(S(=O)(=O)NCC4CC4)c3C2)c(=O)c1=O` (stereo not shown) [Example 36, N-[3-(Cyclopropylmethylsulfamoyl)-5-[(2-ethoxy-3,4-dioxo-cyclobuten-1-yl)amino]-4,5,6,7-tetrahydrobenzothiophen-2-yl]cyclopropanecarboxamide], for which the half-inhibitory concentration (IC50) was less than 1000 nM.

As to `CCNc1c(NC2CCc3sc(NC(=O)C4CC4)c(S(=O)(=O)NCC4CC4)c3C2)c(=O)c1=O` (stereo not shown) [Example 37, N-[3-(Cyclopropylmethylsulfamoyl)-5-[[2-(ethylamino)-3,4-dioxo-cyclobuten-1-yl]amino]-4,5,6,7-tetrahydrobenzothiophen-2-yl]cyclopropanecarboxamide], the IC50 was less than 1000 nM.

For the molecule `CCCCS(=N)(=O)c1c(NC(=O)C2CC2)sc2c1CCCC2` (stereo not shown) [Example 38, N-[3-(Butylsulfonimidoyl)-4,5,6,7-tetrahydrobenzothiophen-2-yl]cyclopropanecarboxamide], the half-maximal inhibitory concentration (IC50) lay in the range of 1000 to 10000 nM.

`CCOC(=O)C1CCc2sc(NC(=O)C3CC3)c(C(=O)NCC3CC3)c2C1` (stereo not shown) [Example 39, Ethyl 2-(cyclopropanecarbonylamino)-3-(cyclopropylmethylcarbamoyl)-4,5,6,7-tetrahydrobenzothiophene-5-carboxylate]: the 50% inhibitory concentration (IC50) is 1000 to 10000 nM.

On to `O=C(NCC1CC1)c1c(NC(=O)C2CC2)sc2c1CC(C(=O)O)CC2` (stereo not shown) [Example 40, 2-(Cyclopropanecarbonylamino)-3-(cyclopropylmethylcarbamoyl)-4,5,6,7-tetrahydrobenzothiophene-5-carboxylic acid], for which the half-maximal inhibitory concentration (IC50) was 10000 to 50000 nM.

Turning to `O=C1NCc2cc(NC(=O)C3CCc4sc(NC(=O)C5CC5)c(C(=O)NCC5CC5)c4C3)ccc21` (stereo not shown) [Example 41, 2-(Cyclopropanecarbonylamino)-N3-(cyclopropylmethyl)-N5-(1-oxoisoindolin-5-yl)-4,5,6,7-tetrahydrobenzothiophene-3,5-dicarboxamide], the IC50 is less than 1000 nM.

`O=C1CC(c2cccc(NC(=O)C3CCc4sc(NC(=O)C5CC5)c(C(=O)NCC5CC5)c4C3)c2)CN1` (stereo not shown) [Example 42, 2-(Cyclopropanecarbonylamino)-N3-(cyclopropylmethyl)-N5-[3-(5-oxopyrrolidin-3-yl)phenyl]-4,5,6,7-tetrahydrobenzothiophene-3,5-dicarboxamide]: the IC50 is less than 1000 nM.

Consider `CC1=NN(c2cccc(NC(=O)C3CCc4sc(NC(=O)C5CC5)c(C(=O)NCC5CC5)c4C3)c2)C(=O)C1` (stereo not shown) [Example 43, 2-(Cyclopropanecarbonylamino)-N3-(cyclopropylmethyl)-N5-[3-(3-methyl-5-oxo-4H-pyrazol-1-yl)phenyl]-4,5,6,7-tetrahydrobenzothiophene-3,5-dicarboxamide], for which the half-maximal inhibitory concentration (IC50) is less than 1000 nM.

For the molecule `O=C(NCC1CC1)c1c(NC(=O)C2CC2)sc2c1CC(C(=O)Nc1cccc3[nH]ncc13)CC2` (stereo not shown) [Example 44, 2-(Cyclopropanecarbonylamino)-N3-(cyclopropylmethyl)-N5-(1H-indazol-4-yl)-4,5,6,7-tetrahydrobenzothiophene-3,5-dicarboxamide; 2,2,2-trifluoroacetic acid], the 50% inhibitory concentration (IC50) is less than 1000 nM.

Turning to `O=C(NCC1CC1)c1c(NC(=O)C2CC2)sc2c1CC(C(=O)Nc1ccc3[nH]ncc3c1)CC2` (stereo not shown) [Example 45, 2-(Cyclopropanecarbonylamino)-N3-(cyclopropylmethyl)-N5-(1H-indazol-5-yl)-4,5,6,7-tetrahydrobenzothiophene-3,5-dicarboxamide; 2,2,2-trifluoroacetic acid], the IC50 is less than 1000 nM.

`O=C(NCC1CC1)c1c(NC(=O)C2CC2)sc2c1CC(c1nc3nccnc3[nH]1)CC2` (stereo not shown) [Example 46, 2-(Cyclopropanecarbonylamino)-N-(cyclopropylmethyl)-5-(1H-imidazo[4,5-b]pyrazin-2-yl)-4,5,6,7-tetrahydrobenzothiophene-3-carboxamide]: the IC50 was less than 1000 nM.

As to `O=C(NCC1CC1)c1c(NC(=O)C2CC2)sc2c1CC(C(=O)NC1Cc3ccccc3C1)CC2` (stereo not shown) [Example 47, 2-(Cyclopropanecarbonylamino)-N3-(cyclopropylmethyl)-N5-indan-2-yl-4,5,6,7-tetrahydrobenzothiophene-3,5-dicarboxamide], the half-inhibitory concentration (IC50) was less than 1000 nM.

As for `COc1ccc(CCNC(=O)C2CCc3sc(NC(=O)C4CC4)c(C(=O)NCC4CC4)c3C2)cc1` (stereo not shown) [Example 48, 2-(Cyclopropanecarbonylamino)-N3-(cyclopropylmethyl)-N5-[2-(4-methoxyphenyl)ethyl]-4,5,6,7-tetrahydrobenzothiophene-3,5-dicarboxamide], the concentration for half-maximal inhibition (IC50) is less than 1000 nM.

For the molecule `O=C(NCC1CC1)c1c(NC(=O)C2CC2)sc2c1CC(C(=O)Nc1ccc3nccnc3c1)CC2` (stereo not shown) [Example 49, 2-(Cyclopropanecarbonylamino)-N3-(cyclopropylmethyl)-N5-quinoxalin-6-yl-4,5,6,7-tetrahydrobenzothiophene-3,5-dicarboxamide], the IC50 is less than 1000 nM.

Consider `O=C(NCC1CC1)c1c(NC(=O)C2CC2)sc2c1CC(C(=O)Nc1nccs1)CC2` (stereo not shown) [Example 50, 2-(Cyclopropanecarbonylamino)-N3-(cyclopropylmethyl)-N5-thiazol-2-yl-4,5,6,7-tetrahydrobenzothiophene-3,5-dicarboxamide], for which the IC50 is less than 1000 nM.

In the case of `O=C(NCC1CC1)c1c(NC(=O)C2CC2)sc2c1CC(C(=O)Nc1nnn[nH]1)CC2` (stereo not shown) [Example 51, 2-(Cyclopropanecarbonylamino)-N3-(cyclopropylmethyl)-N5-(1H-tetrazol-5-yl)-4,5,6,7-tetrahydrobenzothiophene-3,5-dicarboxamide], the 50% inhibitory concentration (IC50) is less than 1000 nM.

On to `O=C(NCC1CC1)c1c(NC(=O)C2CC2)sc2c1CC(C(=O)Nc1ccncc1)CC2` (stereo not shown) [Example 52, 2-(Cyclopropanecarbonylamino)-N3-(cyclopropylmethyl)-N5-(4-pyridyl)-4,5,6,7-tetrahydrobenzothiophene-3,5-dicarboxamide], for which the IC50 is less than 1000 nM.

Regarding `O=C(NCC1CC1)c1c(NC(=O)C2CC2)sc2c1CC(C(=O)Nc1cnccn1)CC2` (stereo not shown) [Example 53, 2-(Cyclopropanecarbonylamino)-N3-(cyclopropylmethyl)-N5-pyrazin-2-yl-4,5,6,7-tetrahydrobenzothiophene-3,5-dicarboxamide], the IC50 is less than 1000 nM.

Take `O=C(NCC1CC1)c1c(NC(=O)C2CC2)sc2c1CC(C(=O)Nc1cccnc1)CC2` (stereo not shown) [Example 54, 2-(Cyclopropanecarbonylamino)-N3-(cyclopropylmethyl)-N5-(3-pyridyl)-4,5,6,7-tetrahydrobenzothiophene-3,5-dicarboxamide]: the IC50 is less than 1000 nM.
